Among the data in PubChem BioAssay (NCI) are GI50 and TGI values, retold here.

Molecules are shown by their SMILES.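 Results reflect a 48-hour exposure of cells in 96-well plates to compound at five concentrations. GI50 is the concentration that inhibits growth by half. TGI: total growth inhibition.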

The test system of the first experiment is 786-0 renal. Description: inhibition of tumour cell growth, NCI panel, 48 h.
With `CC(C)(C)OC(=O)N1CCN(CCn2cc(C(F)(F)F)c3c(Cl)ncnc32)CC1`, the GI50 is 14 µM and the TGI was 27.2 µM.

In the case of `FC(F)(F)c1ccc(Nc2nc(-c3c(C(F)(F)F)nc4ccccn34)cs2)cc1`, the GI50 was 0.0398 µM and the TGI was 2.22 µM.

As to `CN(C)CCN1C(=O)c2ccccc2N(C)c2ccccc21`, the GI50 was above 100 µM and the TGI was above 100 µM.

As for `O=[N+]([O-])O.[Cu+2].[NH-]CC[NH-].[NH-]CC[NH-]`, the GI50 was above 10 µM and the TGI is above 10 µM.

Consider `Cc1nn2c(/C=C3\C(=O)Nc4ccc(Cl)cc43)c(C)nc2s1`, for which the GI50 was 33.7 µM and the TGI is above 100 µM.

Take `COc1ccc(C(=O)OC2C(OC3C(O)COC(O[C@H]4C[C@H]5[C@@H]6CC=C7C[C@@H](O)CC[C@]7(C)[C@H]6CC[C@]5(C)[C@H]4[C@H](C)C(=O)CCC(C)C)C3OC(N)=O)OCC(O)C2O)cc1` (stereo not given in full): the GI50 is 0.00486 µM and the TGI stood at 3.13 µM.

On to `COC(=O)c1nc(-c2ccccc2)oc1S(=O)(=O)Cc1ccccc1`, for which the GI50 is 3.25 µM and the TGI was determined as 11 µM.

In the case of `CN(O)c1nc(N(C)O)nc(N2CCOCC2)n1`, the GI50 is 3.47 µM and the TGI came out at 74 µM.

`COc1ccc(-c2c[nH]c(C(=O)O)c2-c2cc(OC)c(OC)c(OC)c2)cc1`: the GI50 was 6.63 µM and the TGI is above 100 µM.

`C#Cc1c(F)ccc2cc(O)cc(-c3ncc4c(N5CC6CCC(C5)N6)nc(OC[C@@]56CCCN5C[C@H](F)C6)nc4c3F)c12`: the GI50 is 15 µM and the TGI stood at 31 µM.

With `C=C(C)C(=O)Nc1ccc(NC(C)C)cc1`, the GI50 was above 100 µM and the TGI is above 100 µM.

The subject of a further experiment is RPMI-8226 leukemia. In words: inhibition of tumour cell growth, NCI panel, 48 h.
As to `CC(C)(C)OC(=O)N1CCN(CCn2cc(C(F)(F)F)c3c(Cl)ncnc32)CC1`, the GI50 is 3.77 µM and the TGI was found to be 12.3 µM.

In the case of `FC(F)(F)c1ccc(Nc2nc(-c3c(C(F)(F)F)nc4ccccn34)cs2)cc1`, the GI50 was 0.0739 µM and the TGI was 6.01 µM.

In the case of `CN(C)CCN1C(=O)c2ccccc2N(C)c2ccccc21`, the GI50 was above 100 µM and the TGI was above 100 µM.

On to `O=[N+]([O-])O.[Cu+2].[NH-]CC[NH-].[NH-]CC[NH-]`, for which the GI50 was above 10 µM and the TGI was above 10 µM.

With `Cc1nn2c(/C=C3\C(=O)Nc4ccc(Cl)cc43)c(C)nc2s1`, the GI50 is 33.2 µM and the TGI was above 100 µM.

Turning to `COc1ccc(C(=O)OC2C(OC3C(O)COC(O[C@H]4C[C@H]5[C@@H]6CC=C7C[C@@H](O)CC[C@]7(C)[C@H]6CC[C@]5(C)[C@H]4[C@H](C)C(=O)CCC(C)C)C3OC(N)=O)OCC(O)C2O)cc1` (stereo not given in full), the GI50 is below 0.003 µM and the TGI came to 0.00997 µM.

With `COC(=O)c1nc(-c2ccccc2)oc1S(=O)(=O)Cc1ccccc1`, the GI50 was 3.05 µM and the TGI was determined as 9.51 µM.

For the molecule `CN(O)c1nc(N(C)O)nc(N2CCOCC2)n1`, the GI50 is 3.85 µM and the TGI was above 100 µM.

Regarding `COc1ccc(-c2c[nH]c(C(=O)O)c2-c2cc(OC)c(OC)c(OC)c2)cc1`, the GI50 is 4.24 µM and the TGI is above 100 µM.

Consider `C#Cc1c(F)ccc2cc(O)cc(-c3ncc4c(N5CC6CCC(C5)N6)nc(OC[C@@]56CCCN5C[C@H](F)C6)nc4c3F)c12`, for which the GI50 is 5.1 µM and the TGI was found to be 29.9 µM.

Take `C=C(C)C(=O)Nc1ccc(NC(C)C)cc1`: the GI50 was above 100 µM and the TGI was above 100 µM.

Another experiment deals with SN12C renal. Description: inhibition of tumour cell growth, NCI panel, 48 h.
For `CC(C)(C)OC(=O)N1CCN(CCn2cc(C(F)(F)F)c3c(Cl)ncnc32)CC1`, the GI50 was 4.05 µM and the TGI stood at 15.1 µM.

As for `FC(F)(F)c1ccc(Nc2nc(-c3c(C(F)(F)F)nc4ccccn34)cs2)cc1`, the GI50 was 0.297 µM and the TGI turned out to be 8.28 µM.

For the molecule `CN(C)CCN1C(=O)c2ccccc2N(C)c2ccccc21`, the GI50 is above 100 µM and the TGI is above 100 µM.

As for `O=[N+]([O-])O.[Cu+2].[NH-]CC[NH-].[NH-]CC[NH-]`, the GI50 was above 10 µM and the TGI is above 10 µM.

Turning to `Cc1nn2c(/C=C3\C(=O)Nc4ccc(Cl)cc43)c(C)nc2s1`, the GI50 is above 100 µM and the TGI is above 100 µM.

Turning to `COc1ccc(C(=O)OC2C(OC3C(O)COC(O[C@H]4C[C@H]5[C@@H]6CC=C7C[C@@H](O)CC[C@]7(C)[C@H]6CC[C@]5(C)[C@H]4[C@H](C)C(=O)CCC(C)C)C3OC(N)=O)OCC(O)C2O)cc1` (stereo not given in full), the GI50 was 2.61 µM and the TGI is 7.04 µM.

In the case of `COC(=O)c1nc(-c2ccccc2)oc1S(=O)(=O)Cc1ccccc1`, the GI50 is 4.27 µM and the TGI was 15.5 µM.

With `CN(O)c1nc(N(C)O)nc(N2CCOCC2)n1`, the GI50 was 7.48 µM and the TGI is above 100 µM.

Turning to `COc1ccc(-c2c[nH]c(C(=O)O)c2-c2cc(OC)c(OC)c(OC)c2)cc1`, the GI50 is 7.94 µM and the TGI is above 100 µM.

As for `C#Cc1c(F)ccc2cc(O)cc(-c3ncc4c(N5CC6CCC(C5)N6)nc(OC[C@@]56CCCN5C[C@H](F)C6)nc4c3F)c12`, the GI50 is 14.8 µM and the TGI was 31 µM.

As to `C=C(C)C(=O)Nc1ccc(NC(C)C)cc1`, the GI50 was above 100 µM and the TGI was above 100 µM.

In the next experiment the test system is NCI/ADR-RES ovarian. Description: inhibition of tumour cell growth, NCI panel, 48 h.
For `CC(C)(C)OC(=O)N1CCN(CCn2cc(C(F)(F)F)c3c(Cl)ncnc32)CC1`, the GI50 was 23 µM and the TGI was found to be 67.7 µM.

As for `FC(F)(F)c1ccc(Nc2nc(-c3c(C(F)(F)F)nc4ccccn34)cs2)cc1`, the GI50 was 0.035 µM and the TGI came out at 2.07 µM.

Turning to `CN(C)CCN1C(=O)c2ccccc2N(C)c2ccccc21`, the GI50 is above 100 µM and the TGI is above 100 µM.

For `O=[N+]([O-])O.[Cu+2].[NH-]CC[NH-].[NH-]CC[NH-]`, the GI50 was above 10 µM and the TGI was above 10 µM.

As to `Cc1nn2c(/C=C3\C(=O)Nc4ccc(Cl)cc43)c(C)nc2s1`, the GI50 was 15.8 µM and the TGI is above 100 µM.

On to `COc1ccc(C(=O)OC2C(OC3C(O)COC(O[C@H]4C[C@H]5[C@@H]6CC=C7C[C@@H](O)CC[C@]7(C)[C@H]6CC[C@]5(C)[C@H]4[C@H](C)C(=O)CCC(C)C)C3OC(N)=O)OCC(O)C2O)cc1` (stereo not given in full), for which the GI50 was 13.9 µM and the TGI amounted to 30 µM.

Consider `COC(=O)c1nc(-c2ccccc2)oc1S(=O)(=O)Cc1ccccc1`, for which the GI50 is 16.9 µM and the TGI came out at 36.3 µM.

`CN(O)c1nc(N(C)O)nc(N2CCOCC2)n1`: the GI50 is 2.56 µM and the TGI is above 100 µM.

In the case of `COc1ccc(-c2c[nH]c(C(=O)O)c2-c2cc(OC)c(OC)c(OC)c2)cc1`, the GI50 is 3.8 µM and the TGI is above 100 µM.

For `C#Cc1c(F)ccc2cc(O)cc(-c3ncc4c(N5CC6CCC(C5)N6)nc(OC[C@@]56CCCN5C[C@H](F)C6)nc4c3F)c12`, the GI50 is above 100 µM and the TGI is above 100 µM.

Consider `C=C(C)C(=O)Nc1ccc(NC(C)C)cc1`, for which the GI50 was above 100 µM and the TGI was above 100 µM.

In a further experiment the test system is UACC-257 melanoma. In words: inhibition of tumour cell growth, NCI panel, 48 h.
Consider `CC(C)(C)OC(=O)N1CCN(CCn2cc(C(F)(F)F)c3c(Cl)ncnc32)CC1`, for which the GI50 was 3.31 µM and the TGI was found to be 10.4 µM.

With `FC(F)(F)c1ccc(Nc2nc(-c3c(C(F)(F)F)nc4ccccn34)cs2)cc1`, the GI50 was 2.06 µM and the TGI came out at 8.64 µM.

Consider `CN(C)CCN1C(=O)c2ccccc2N(C)c2ccccc21`, for which the GI50 was above 100 µM and the TGI was above 100 µM.

As to `O=[N+]([O-])O.[Cu+2].[NH-]CC[NH-].[NH-]CC[NH-]`, the GI50 is above 10 µM and the TGI is above 10 µM.

For the molecule `Cc1nn2c(/C=C3\C(=O)Nc4ccc(Cl)cc43)c(C)nc2s1`, the GI50 is above 100 µM and the TGI is above 100 µM.

For the molecule `COc1ccc(C(=O)OC2C(OC3C(O)COC(O[C@H]4C[C@H]5[C@@H]6CC=C7C[C@@H](O)CC[C@]7(C)[C@H]6CC[C@]5(C)[C@H]4[C@H](C)C(=O)CCC(C)C)C3OC(N)=O)OCC(O)C2O)cc1` (stereo not given in full), the GI50 was 0.03 µM and the TGI was determined as 0.472 µM.

Turning to `COC(=O)c1nc(-c2ccccc2)oc1S(=O)(=O)Cc1ccccc1`, the GI50 was 13.7 µM and the TGI was found to be 27.2 µM.

As to `CN(O)c1nc(N(C)O)nc(N2CCOCC2)n1`, the GI50 is 5.57 µM and the TGI worked out at 92.2 µM.

With `COc1ccc(-c2c[nH]c(C(=O)O)c2-c2cc(OC)c(OC)c(OC)c2)cc1`, the GI50 is above 100 µM and the TGI is above 100 µM.

Regarding `C#Cc1c(F)ccc2cc(O)cc(-c3ncc4c(N5CC6CCC(C5)N6)nc(OC[C@@]56CCCN5C[C@H](F)C6)nc4c3F)c12`, the GI50 was 18.1 µM and the TGI turned out to be 35.1 µM.

As for `C=C(C)C(=O)Nc1ccc(NC(C)C)cc1`, the GI50 is above 100 µM and the TGI is above 100 µM.
